This note sets out measurements from patent US8586743B2, “Labeling reagents and methods of their use” (Life Technologies Corporation, priority 2007, dated 2013).

A short description of series [1]: Hydrolysis half-life by HPLC (percent hydrolysis) at room temperature.
Procedure: (§1) Samples were incubated at room temperature in the indicated solution.
(§2) 2-(6-amino-3-iminio-4,5-disulfonato-3H-xanthen-9-yl)benzoate, comprising an SDP ester was prepared and compared to commercially available 2-(6-amino-3-iminio-4,5-disulfonato-3H-xanthen-9-yl)benzoate comprising a succinimidyl ester (SE) and 2-(6-amino-3-iminio-4,5-disulfonato-3H-xanthen-9-yl)benzoate comprising a TFP for hydrolytic stability in 25 mM Pi buffer pH 8.6.
For series [2] the following is noted: buffer, pH 8.6.
Procedure: as §1, §2
The mark [3] stands for this setting: phosphate buffer with imidazole, pH 8.6.

As for `CC1(C)C(/C=C/C=C/C=C2\N(CCCS(=O)(=O)O)c3ccc(S(=O)(=O)[O-])cc3C2(C)CCCCCC(=O)Oc2c(Cl)cc(S(=O)(=O)O)cc2Cl)=[N+](CCCS(=O)(=O)O)c2ccc(S(=O)(=O)O)cc21` (stereo not shown) [Compound 114], in series [1] (phosphate buffer, pH 8.6), the half-life stood at 102 min.
The same measure, in the same setting: in the case of `CC1(C)C(/C=C/C=C/C=C2\N(CCCS(=O)(=O)O)c3ccc(S(=O)(=O)[O-])cc3C2(C)CCCCCC(=O)ON2C(=O)CCC2=O)=[N+](CCCS(=O)(=O)O)c2ccc(S(=O)(=O)O)cc21` (stereo not shown) [Compound 121, reference compound] it was 105 min.
Regarding `N=c1ccc2c(-c3ccc(C(=O)Oc4c(F)c(F)cc(F)c4F)cc3C(=O)O)c3ccc(N)c(S(=O)(=O)O)c3oc-2c1S(=O)(=O)O` [Compound 120, reference compound], the half-life in series [1] (HEPES buffer, pH 8.2) is 390 min; in series [1] (Tris buffer with NaN3, pH 8.6), less than 1 min; in series [1] (Tris buffer, pH 7) it was 836 min; in series [1] (Tris buffer, pH 8.6) it was 139 min; in series [1] (borate buffer, pH 8.6), less than 5 min; in series [1] (setting [3]), less than 2 min. For the same compound, the half-life in series [1] (phosphate buffer, pH 7.2) is 173 min; in series [1] (phosphate buffer, pH 8.6) it was 78 min.
Regarding `N=c1ccc2c(-c3ccc(C(=O)Oc4c(Cl)cc(S(=O)(=O)O)cc4Cl)cc3C(=O)O)c3ccc(N)c(S(=O)(=O)O)c3oc-2c1S(=O)(=O)O` [Compound 102], the half-life in series [1] (DMSO) was 23000 min; in series [1] (HEPES buffer, pH 8.2) it was 9540 min; in series [1] (Tris buffer with NaN3, pH 8.6), 95 min; in series [1] (Tris buffer, pH 7) it was 61100 min; in series [1] (Tris buffer, pH 8.6), 4620 min; in series [1] (borate buffer, pH 8.6), 210 min. In addition, the half-life is 38 min in series [1] (setting [3]); 14700 min in series [1] (phosphate buffer, pH 7.2); 1680 min in series [1] (phosphate buffer, pH 8.6); 30200 min in series [1] (water). Moreover, the “half-life (hydrolytic stability)” value in series [2] worked out at 28 h.
Take `N=c1ccc2c(-c3cc(C(=O)Oc4c(Cl)cc(S(=O)(=O)O)cc4Cl)ccc3C(=O)O)c3ccc(N)c(S(=O)(=O)O)c3oc-2c1S(=O)(=O)O` [Compound 104]: the half-life in series [1] (phosphate buffer, pH 8.6) is 1020 min.
